According to patent US8846711B2, “Heterocyclic acrylamides and their use as pharmaceuticals” (Fab Pharma S.A.S., priority 2009, dated 2014):
≈ marks a conversion by molar mass, not a printed value.

Experiments:
S. aureus CIP 54.146 = test: MIC determination using broth microdilution method; format: cell-based; details: Staphylococcus aureus, CIP54 / MSSA, read-out: MIC (μg/ml) S. aureus CIP 54.146
Procedure: The compounds of the invention are useful antibacterial agents having a selective spectrum of activity in vitro against bacterial strains relying on FabI and related targets. […] The activity is presented as Minimum Inhibitory Concentration (MIC) expressed in μg/ml and was determined using broth microdilution or Agar dilution methods.
(§1) Antibacterial activity was determined on strains from Mutabilis internal collection.
This protocol is compliant with Clinical Laboratory Standards Institute (CLSI) methodology as described in M7-A7 document of the CLSI. The compound to be tested is diluted according to a geometric series of reason 2 in pure DMSO. Dilutions are transferred in sterile polystyrene microplates, followed by mid-log phase bacteria in cation-adjusted Muller-Hinton broth (ca-MHB, Fluka, Reference 90922) with a final inoculum of 5×10^5 cfu/ml. Microplates are incubated overnight at 35° C. MIC is defined as the lowest concentration of antimicrobial agent that completely prevents visible bacterial growth. All manipulations, but compound handling (in pure DMSO), are performed under sterile conditions. The final concentration of DMSO in the plates is 2%.

[1] = target: recombinant S. aureus FabI enzyme (Staphylococcus aureus (strain MRSA252), UniProt Q6GI75); test: FabI inhibition, fluorescence based assay; format: biochemical; details: in vitro
Procedure: Compound inhibitory activity of FabI enzyme is measured in vitro by the […] determination using a fluorescence based assay.
The protein FabI from S. aureus is prepared and purified using standard methods for recombinant protein expression after cloning of the gene in a prokaryotic expression vector.
The biochemical activity of the FabI enzyme is assessed using the following method.
The assay buffer “AB” contained 50 mM ADA (N-(2-acetamido)iminodiacetic acid monosodium salt) pH 6.5, 1 mM dithiothreitol, 0.006% Triton-X100 and 50 mM NaCl.
The following components are added in a white polystyrene Costar plate (Ref 3912) up to a final volume of 55.5 μL: 1.5 μL DMSO or inhibitor dissolved in DMSO and 54 μL of a FabI/NADPH/NADP+ mixture in AB. After 60 min of pre-incubation at room temperature, the reaction is started by addition of 5 μL of trans-2-octenoyl N-acetylcysteamine thioester (t-o-NAC) to a final volume of 60.5 μL. This reaction mixture is then composed of 2 nM FabI, 40 μM NADPH (Sigma, N7505), 10 μM NADP+ (Sigma, N5755), 100 μM t-O-NAC and compound at defined concentration. Fluorescence intensity of NADPH (λex=360 nm, […]) is measured immediately after t-O-NAC addition (T0), and approximately 50 min later (T50) by a Fluostar Optima (BMG) so as to achieve ±30% of NADPH conversion. Enzyme activity is calculated by first subtracting TO signal to T50 and then subtracting background signal (FabI=0). Percentages of inhibition are calculated against untreated samples (Inhibitor=0) and IC50 are fitted to a classical Langmuir equilibrium model using XLFIT (IDBS).

[2] = test system: Staphylococcus aureus NRS483; test: MIC determination using agar dilution method; format: cell-based; details: MRSA / NRS 483, read-out: MIC (μg/ml) NRS483
Procedure: as §1
(§2) This protocol is compliant with Clinical Laboratory Standards Institute (CLSI) methodology as described in M7-A7 document of the CLSI. The compound to be tested is incorporated into Mueller-Hinton Agar medium (Fluka, Reference 70191) at one concentration per plate according to a geometric series of reason 2. Plates are inoculated with mid-log phase bacteria (inoculum=1×10^4 cfu/spot) and incubated overnight at 35° C. […] All manipulations, but compound handling (in pure DMSO), are performed under sterile conditions. The final DMSO concentration of DMSO in the plates is 2%. Vancomycin is used as reference.

[3] = test system: Staphylococcus aureus NRS383; test: MIC determination using agar dilution method; format: cell-based; details: MRSA / NRS 383, read-out: MIC (μg/ml) NRS383
Procedure: as §1, §2

[4] = test system: Staphylococcus aureus NRS119; test: MIC determination using agar dilution method; format: cell-based; details: MRSA / NRS 119, read-out: MIC (μg/ml) NRS119
Procedure: as §1, §2

[5] = test system: Staphylococcus aureus NRS382; test: MIC determination using agar dilution method; format: cell-based; details: MRSA / NRS 382, read-out: MIC (μg/ml) NRS382
Procedure: as §1, §2

[6] = test system: Staphylococcus aureus NRS269; test: MIC determination using agar dilution method; format: cell-based; details: MRSA / NRS 269, read-out: MIC (μg/ml) NRS269
Procedure: as §1, §2

[7] = test system: Staphylococcus aureus NRS121; test: MIC determination using agar dilution method; format: cell-based; details: MRSA / NRS 121, read-out: MIC (μg/ml) NRS121
Procedure: as §1, §2

[8] = test system: Staphylococcus aureus NRS130; test: MIC determination using agar dilution method; format: cell-based; details: MSSA / NRS 130, read-out: MIC (μg/ml) NRS130
Procedure: as §1, §2

[9] = test system: Staphylococcus aureus NRS482; test: MIC determination using agar dilution method; format: cell-based; details: MRSA / NRS 482, read-out: MIC (μg/ml) NRS482
Procedure: as §1, §2

[10] = test system: Staphylococcus aureus NRS192; test: MIC determination using agar dilution method; format: cell-based; details: MRSA / NRS 192, read-out: MIC (μg/ml) NRS192
Procedure: as §1, §2

[11] = test system: Staphylococcus aureus NRS262; test: MIC determination using agar dilution method; format: cell-based; details: MSSA / NRS 262, read-out: MIC (μg/ml) NRS262
Procedure: as §1, §2

[12] = test system: Staphylococcus aureus NRS123; test: MIC determination using agar dilution method; format: cell-based; details: MRSA / NRS 123, read-out: MIC (μg/ml) NRS123
Procedure: as §1, §2

[13] = test system: Staphylococcus aureus NRS128; test: MIC determination using agar dilution method; format: cell-based; details: MSSA / NRS 128, read-out: MIC (μg/ml) NRS128
Procedure: as §1, §2

[14] = test system: Staphylococcus aureus NRS22; test: MIC determination using agar dilution method; format: cell-based; details: MRSA / NRS 22, read-out: MIC (μg/ml) NRS22
Procedure: as §1, §2

[15] = test system: Staphylococcus aureus NRS120; test: MIC determination using agar dilution method; format: cell-based; details: MRSA / NRS 120, read-out: MIC (μg/ml) NRS120
Procedure: as §1, §2

[16] = test system: Staphylococcus aureus NRS127; test: MIC determination using agar dilution method; format: cell-based; details: MRSA / NRS 127, read-out: MIC (μg/ml) NRS127
Procedure: as §1, §2

[17] = test system: Staphylococcus aureus NRS484; test: MIC determination using agar dilution method; format: cell-based; details: MRSA / NRS 484, read-out: MIC (μg/ml) NRS484
Procedure: as §1, §2

[18] = test system: Staphylococcus aureus NRS385; test: MIC determination using agar dilution method; format: cell-based; details: MRSA / NRS 385, read-out: MIC (μg/ml) NRS385
Procedure: as §1, §2

[19] = test system: Staphylococcus aureus NRS384; test: MIC determination using agar dilution method; format: cell-based; details: MRSA / NRS 384, read-out: MIC (μg/ml) NRS384
Procedure: as §1, §2

[20] = test system: Staphylococcus aureus NRS386; test: MIC determination using agar dilution method; format: cell-based; details: MRSA / NRS 386, read-out: MIC (μg/ml) NRS386
Procedure: as §1, §2

[21] = test system: Staphylococcus aureus NRS100; test: MIC determination using agar dilution method; format: cell-based; details: MRSA / NRS 100, read-out: MIC (μg/ml) NRS100
Procedure: as §1, §2

[22] = test system: Staphylococcus aureus strain ATCC 29213; test: In vivo antibacterial activity, thigh infection model in neutropenic Swiss mice; details: 50 mg/kg subcutaneously, 1.5 h after infection, FIG. 2
E. coli FabI = E. coli FabI (Escherichia coli (strain K12), UniProt P0AEK4); details: literature (Ward et al.); cited from earlier work
Chain of E. coli FabI (P0AEK4 whole entry): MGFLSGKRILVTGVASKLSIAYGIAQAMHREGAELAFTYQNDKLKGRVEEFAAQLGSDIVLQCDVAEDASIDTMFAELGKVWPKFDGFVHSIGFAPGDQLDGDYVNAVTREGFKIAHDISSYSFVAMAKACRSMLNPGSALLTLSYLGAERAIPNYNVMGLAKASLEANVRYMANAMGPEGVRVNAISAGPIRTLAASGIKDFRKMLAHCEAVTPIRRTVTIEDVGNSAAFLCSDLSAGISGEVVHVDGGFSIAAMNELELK

| SMILES | MIC (S. aureus CIP 54.146) [µg/mL] | IC50 [1] [nM] | MIC [2] [µg/mL] | MIC [3] [µg/mL] | MIC [4] [µg/mL] | MIC [5] [µg/mL] | MIC [6] [µg/mL] | MIC [7] [µg/mL] | MIC [8] [µg/mL] | MIC [9] [µg/mL] | MIC [10] [µg/mL] | MIC [11] [µg/mL] | MIC [12] [µg/mL] | MIC [13] [µg/mL] | MIC [14] [µg/mL] | MIC [15] [µg/mL] | MIC [16] [µg/mL] | MIC [17] [µg/mL] | MIC [18] [µg/mL] | MIC [19] [µg/mL] | other results |
| --- | --- | --- | --- | --- | --- | --- | --- | --- | --- | --- | --- | --- | --- | --- | --- | --- | --- | --- | --- | --- | --- |
| CCCC1CCN(C(=O)/C=C/c2cnc3c(c2)CCC(=O)N3)CC1 [Example 8, 6-[(1E)-3-Oxo-3-(4-propylpiperidin-1-yl)prop-1-en-1-yl]-3,4-dihydro-1,8-naphthyridin-2(1H)-one] | 4 (≈ 12.2 µM) | 41 | – | – | – | – | – | – | – | – | – | – | – | – | – | – | – | – | – | – | – |
| O=C1CCc2cc(/C=C/C(=O)N3CCC(Oc4ccccc4)C3)cnc2N1 (stereo not drawn) [Example 10, 6-[(1E)-3-Oxo-3-(3-phenoxypyrrolidin-1-yl)prop-1-en-1-yl]-3,4-dihydro-1,8-naphthyridin-2(1H)-one] | 4 (≈ 11 µM) | 120 | – | – | – | – | – | – | – | – | – | – | – | – | – | – | – | – | – | – | – |
| CCCCCOC1CN(C(=O)/C=C/c2cnc3c(c2)CCC(=O)N3)C1 [Example 15, 6-{(1E)-3-Oxo-3-[3-(pentyloxy)azetidin-1-yl]prop-1-en-1-yl}-3,4-dihydro-1,8-naphthyridin-2(1H)-one] | 4 (≈ 11.6 µM) | 25 | 4 (≈ 11.6 µM) | 4 (≈ 11.6 µM) | 2 (≈ 5.82 µM) | 4 (≈ 11.6 µM) | 4 (≈ 11.6 µM) | 2 (≈ 5.82 µM) | 2 (≈ 5.82 µM) | 4 (≈ 11.6 µM) | 4 (≈ 11.6 µM) | 4 (≈ 11.6 µM) | 2 (≈ 5.82 µM) | 1 (≈ 2.91 µM) | 4 (≈ 11.6 µM) | 2 (≈ 5.82 µM) | 2 (≈ 5.82 µM) | 4 (≈ 11.6 µM) | 4 (≈ 11.6 µM) | 4 (≈ 11.6 µM) | MIC [20]: 4 µg/mL (≈ 11.6 µM); MIC [21]: 1 µg/mL (≈ 2.91 µM); in vivo antibacterial activity (bacterial burden in the thigh of infected mice) [22]: able to protect mice against thigh dissemination |
| Oc1cc(Cl)ccc1Oc1ccc(Cl)cc1Cl [Triclosan] | – | – | – | – | – | – | – | – | – | – | – | – | – | – | – | – | – | – | – | – | inhibition of E. coli FabI (E. coli FabI): reversible, tight-binding inhibitor |
| CN[C@H](CC(C)C)C(=O)N[C@H]1C(=O)N[C@@H](CC(N)=O)C(=O)N[C@H]2C(=O)N[C@H]3C(=O)N[C@H](C(=O)N[C@H](C(=O)O)c4cc(O)cc(O)c4-c4cc3ccc4O)[C@H](O)c3ccc(c(Cl)c3)Oc3cc2cc(c3O[C@@H]2O[C@H](CO)[C@@H](O)[C@H](O)[C@H]2O[C@H]2C[C@](C)(N)[C@H](O)[C@H](C)O2)Oc2ccc(cc2Cl)[C@H]1O [Vancomycin, reference compound] | – | – | 1 (≈ 0.69 µM) | 0.5 (≈ 0.345 µM) | 1 (≈ 0.69 µM) | 1 (≈ 0.69 µM) | 2 (≈ 1.38 µM) | 1 (≈ 0.69 µM) | 1 (≈ 0.69 µM) | 1 (≈ 0.69 µM) | 1 (≈ 0.69 µM) | 1 (≈ 0.69 µM) | 1 (≈ 0.69 µM) | 1 (≈ 0.69 µM) | 4 (≈ 2.76 µM) | 1 (≈ 0.69 µM) | 1 (≈ 0.69 µM) | 1 (≈ 0.69 µM) | 1 (≈ 0.69 µM) | 1 (≈ 0.69 µM) | MIC [20]: 1 µg/mL (≈ 0.69 µM); MIC [21]: 1 µg/mL (≈ 0.69 µM) |
